This is an account of results in article PMC3341351, “Down-Regulation of GABAA Receptor via Promiscuity with the Vasoactive Peptide Urotensin II Receptor. Potential Involvement in Astrocyte Plasticity” (PLoS ONE, 2012).

What all share (assay type): cell-based
One experiment deals with UT in human U87 glioma. The experiment is described as follows: Cell surface ELISA of UT in U87 glioma. The following applies: hUII 10^−8 M, 30 min, absence or presence of the UT C-terminus. How it is done:
The human cell line from glioblastoma U87 was obtained from the American Type Culture Collection (LGC Standards, Molsheim, France). U87 cells were maintained in DMEM containing 10% FBS and 1% sodium pyruvate. NHA-Astrocytes (Lonza, Walkersville, MD, USA) were cultivated in DMEM culture medium supplemented with 2 mM glutamine, 5 mM HEPES, 1% non essential amino acids, 1% sodium pyruvate, B27, 25 ng/ml EGF, 1% of the antibiotic-antimycotic solution and 10% FBS. All cells were incubated at 37°C in a humidified atmosphere containing 5% CO2. Culture media were replaced every three days.
Cells were plated at 50 000 cells/well in 96-well plates coated with 0.1 mg/ml poly-L-ornithine (Sigma-Aldrich). […] Cells were fixed with 4% PFA in PBS for 5 min at RT, washed in PBS, and then permeabilized in 0.05% triton X100 (only for permeabilized cells) and non specific binding were blocked with PBS containing 1% FBS for 30 min at RT. […] The cells were washed four times with PBS, a colorimetric alkaline phosphatase substrate was added (SuperSignal ELISA, Thermo scientific, Fisher) and the resulting color reaction was measured using a Viktor multilabel plate reader (PerkinElmer, Courtaboeuf, France). Background absorbance from samples transfected with non-tagged receptors or from cells without first antibodies were systematically measured. […]

Experiment [1] relates to α2β3 GABAAR co-expressed with human UT. The experiment is described as follows: Patch-clamp of Iso-evoked current in CHO-UT expressing α2β3 GABAAR. To be noted: hUII 10^−13 to 10^−7 M; Iso 10^−4 M, 2 s; −60 mV. On the procedure:
CHO-K1 cell lines were obtained from American Type Culture Collection (Manassas, VA, USA). The human UT stable CHO (CHO-UT) was generously provided by Dr Christophe Dubessy (Inserm, Rouen University, France) et generated by CHO electroporation with 20 µg pIRES-neo2-UT DNA and 500 µg sterile sonicated salmon sperm DNA using the EasyJect One electroporation system (Equibio, Angleur, Belgium), followed by repetitive rounds of limiting dilution of cells in G-418 (400 µg/ml) for selection. Normal or stable CHO was grown in Ham-F12 medium supplemented with 10% FBS, 1% antibiotic-antimicotic solution and 2 mM glutamine, at 37°C in a humidified incubator with an atmosphere of 5% CO2. The stable CHO-UT medium was supplemented with the antibiotic G-418 (40 µg/ml).
For transfection, cells were trypsinized (0.05%), triturated in HamF-12 containing 10% FBS media, pelleted by centrifugation, resuspended in 100 µl solution V for nucleofection by an Amaxa Nucleofector Device (Köln, Germany; set to program U-016). Experiments were performed on normal CHO or on the stable CHO-UT cells and transiently transfected with combinations of cDNA encoding α2β3γ2, α2β3γ1, α2β1γ2, α2β3γ1, α2β3, β3γ2 (4 µg of cDNA total/transfection) GABAAR subunits. Cells were seeded on 14-mm poly-L-lysine-coated glass bottom insert dishes at 5×10^5 cells in a volume of 0.5 ml/dish. […]
Background: In patch-clamp work, channel activity is measured electrically.

Experiment [2] deals with α2β1 GABAAR co-expressed with human UT. Put plainly: Patch-clamp of Iso-evoked current in CHO-UT expressing α2β1 GABAAR. The following applies: hUII 10^−13 to 10^−7 M; Iso 10^−4 M, 2 s; −60 mV.

As to “ETPDCFWKYCV (disulfide) [hUII, human urotensin II, synthesized by solid phase methodology]”, in the experiment with UT in human U87 glioma, the “UT levels at the cell surface, U87” value was “remained unchanged”. Moreover, the “Inhibitory effect on Iso-evoked current, α2β3” value in experiment [1] was “totally ineffective”. Besides, the “Inhibitory effect on Iso-evoked current, α2β1” value in experiment [2] was “totally ineffective”.
